Measured values published in US6664285B1, “Use of cell membrane penetrating indigoid bisindole derivatives” (priority 1999, dated 2003).
Read-outs that look alike come from different tables or passages of the source. Values belong to the compound of their own block, whether it stands above or below them.

How the values were obtained:
MCF7X (mammary) = assay: Colony-forming assay; type: cell-based, human; details: for IC50: read-out: IC50 colony formation
PAXF546 (pancreatic) = assay: Colony-forming assay; type: cell-based, human
HT29X (colon) = assay: Colony-forming assay; type: cell-based, human; details: colon HT29X; for IC50: read-out: IC50 colony formation
[1] = system: LXFS650 (lung small-cell); assay: Colony-forming assay; type: cell-based, human
[2] = system: LXFA526 (lung adenocarcinoma); assay: Colony-forming assay; type: cell-based, human
[3] = system: human tumor xenograft LXFL 529; assay: In vivo testing in nude mice bearing subcutaneous tumor xenograft; details: days 1, 4, 8, 11, 15, 18, 22
Experimental: Compound of Examples 1, 4, 6, 8, 9 and 10 were subjected to in vivo testing in nude mice bearing subcutaneously growing human tumor xenograft LXFL 529. The indigoid bisindole derivatives were applied intraperitoneally to the animals in doses and according to the schedule as described in Table 4.
The experiments were run for 21 or 28 days. Anti-tumor activity was evaluated comparing the median tumor volume relative to control, expressed as %T/C, wherein T is the test group and C the vehicle control group. In Table 4, anti-tumor activity is given according to an activity rate scale.

MEXF515LX (melanoma) = assay: Colony-forming assay; type: cell-based, human
[4] = system: LXFA289 (lung adenocarcinoma); assay: Colony-forming assay; type: cell-based, human; details: for IC50: read-out: IC50 colony formation
CXF280 (colon) = assay: Colony-forming assay; type: cell-based, human
BXF1301 (bladder) = assay: Colony-forming assay; type: cell-based, human
PAXF736 (pancreatic) = assay: Colony-forming assay; type: cell-based, human
OVXF1353 (ovarian) = assay: Colony-forming assay; type: cell-based, human; details: for IC50: read-out: IC50 colony formation
Experimental: The anti-tumor activity of the compounds was evaluated via a colony-forming-assay as described e.g. by D. P. Berger et al. in Annals of Oncology 1, pages 333-341 (1 990), “The clonongenic assay with human tumor xenografts, evaluation, predictive values and application for drug screening”.
The experiments were conducted using various tumor cell lines, in particular mammary carcinoma (MAXF), lung adenocarcinoma (LXFA), large-cell lung carcinoma (LXFL), small-cell lung carcinoma (LXFS), colon carcinoma (CXF), melanoma (MEXF), pancreatic carcinoma (PAXF), renal carcinoma (RXF), ovarian carcinoma (OVXF) and bladder carcinoma (BXF).

[5] = system: mammary carcinoma line MCF-7; assay: Tumor cell growth inhibition, sulforhodamine B (SRB) assay; type: cell-based, human; details: MCF7; three days incubation, serum containing medium
[6] = system: large-cell lung carcinoma xenograft line LXFL 529 L; assay: as above; type: cell-based, human; details: LXFL529L; three days incubation, serum containing medium
[7] = system: various tumor cell lines (all); assay: Colony-forming assay, all tumor xenografts; type: cell-based, human
Text: The compounds according to the inventive Examples show good to excellent anti-tumor activity against various types of tumor cell lines.

Solubility = type: physicochemical
LXFL 529L cells = assay: Cellular uptake into LXFL 529L cells; details: LXFL 529L cells
Experimental: The compounds of Examples 1, 6 and 8 and Comparative Examples 1 and 2 were investigated with respect to their ability to penetrate LXFL 529L cells having the passage numbers P23 to P39. The amounts of the substances taken up by the cells are given depending on the concentration of the substance within the incubation medium. The time of incubation was 2 hours in all of the experiments. Furthermore, the distribution of the substance which was taken up by the cells in the cytosol and the cellular organelles (particular) was estimated and is given in the intermediate column of Table 2. Tumor cell growth inhibition was determined by the sulfo-rhodamine B assay (SRB assay) according to Skehan et al., J. Natl. Cancer Institute 82, pages 1107-1112 (1990). Incubation was conducted for three days in serum containing medium. Tumor cell lines tested were a large-cell lung carcinoma xenograft line LXFL 529 L and the mammary carcinoma line MCF-7.

MEXF514 (melanoma) = assay: Colony-forming assay; type: cell-based, human
[8] = read-out: IC50 colony formation

Structure (SMILES): O=C1Nc2ccc(I)cc2/C1=C1/Nc2ccccc2C1=O [Example 2, 5-Iodoindirubin]
IC70 colony formation (MCF7X (mammary)): 2.5 µM
IC50 (MCF7X (mammary)): < 1 µM
IC70 colony formation (PAXF546 (pancreatic)): >30 µM
IC50 (PAXF546 (pancreatic); [8]): 18 µM
IC70 colony formation (HT29X (colon)): >30 µM
IC50 (HT29X (colon)): 6.3 µM
IC70 colony formation [1]: 24.5 µM
IC50 [1, 8]: 13.7 µM
IC70 colony formation [2]: 23 µM
IC50 [2, 8]: 8 µM

Structure (SMILES): O=C1Nc2ccc(I)cc2/C1=C1/Nc2ccccc2/C1=N\O [Example 9, 5-Iodoindirubine-3′-oxime]
IC70 colony formation (MCF7X (mammary)): 10.4 µM
IC50 (MCF7X (mammary)): 2.4 µM
activity rating ([3]; 100 mg/kg/day i.p.): − (inactive T/C > 50%)
activity rating ([3]; 300 mg/kg/day i.p.): + (tumor inhibition T/C > 25-50%)
IC70 colony formation (MEXF515LX (melanoma)): 4.9 µM
IC50 (MEXF515LX (melanoma); [8]): 2.6 µM
IC70 colony formation [4]: 0.7 µM
IC50 [4]: 0.05 µM
IC70 colony formation (CXF280 (colon)): 16.3 µM
IC50 (CXF280 (colon); [8]): 10.7 µM
IC70 colony formation (BXF1301 (bladder)): 5.8 µM
IC50 (BXF1301 (bladder); [8]): 4 µM

Structure (SMILES): O=C1Nc2ccc(F)cc2C1=C1Nc2ccccc2C1=O [Example 5, 5-Fluoroindirubin]
IC70 colony formation (MCF7X (mammary)): <1.0 µM
IC50 (MCF7X (mammary)): < 1 µM
IC70 colony formation (PAXF736 (pancreatic)): 1.1 µM
IC50 (PAXF736 (pancreatic); [8]): < 1 µM
IC70 colony formation (OVXF1353 (ovarian)): 6.1 µM
IC50 (OVXF1353 (ovarian)): < 1 µM

Now from value to compound, other results behind:

IC50 [5]: > 100 µM
IC50 [6]: > 100 µM
IC50 ([7]; tumor xenograft type (all), read-out: IC50 colony formation): > 30 µM
solubility in physiological solutions (in words) (Solubility): well soluble in physiological solutions
uptake by the tumor cells (in words) (LXFL 529L cells): essentially not taken up by the cells
Structure (SMILES): O=C1Nc2ccc(S(=O)(=O)O)cc2C1=C1Nc2ccccc2C1=O [Comparative Example 1, Indirubin-5-sulfonic acid, reference compound]
IC70 colony formation ([7]; tumor xenograft type (all)): >30.0 µM
anti-tumor activity (in words) ([7]; various types of tumor cell lines): does not exhibit an anti-tumor activity against any of the tumor lines

IC50 (MCF7X (mammary)): < 1 µM
IC50 (MEXF514 (melanoma); [8]): 4.9 µM
Structure (SMILES): O=C1Nc2ccc([N+](=O)[O-])cc2C1=C1Nc2ccccc2C1=O [Example 7, 5-Nitroindirubin]
IC70 colony formation (MCF7X (mammary)): 15.1 µM
IC70 colony formation (MEXF514 (melanoma)): >10.0 µM

IC50 (HT29X (colon); Homo sapiens): 3.3 µM
IC50 ([4]; Homo sapiens): 3.5 µM
IC50 (OVXF1353 (ovarian); Homo sapiens): 3.9 µM
Structure (SMILES): O=C1/C(=C2\Nc3ccccc3C2=O)Nc2ccccc21 [Example 11, Indigo]
IC70 colony formation (HT29X (colon)): 26.1 µM
IC70 colony formation [4]: 12.3 µM
IC70 colony formation (OVXF1353 (ovarian)): 16.7 µM
